Results: patent publication US11707445B2, “Composition for blocking angiogenesis” (Indiana University Research and Technology Corporation, priority 2015, dated 2023)

Assays:
[1] = system: mouse choroidal tissues; assay: Choroidal sprouting assay (ex vivo); assay type: cell-based, C57Bl/6J mice
Description: Sprouting of choroidal layers was tested as previously described in Shao et a., PLoS One, 2013 8(7): e69552. Briefly, 6-8 week old C57Bl/6J mice eyes were enucleated immediately after euthanasia. Peripheral parts of the choroid/sclera layer were separated and cut into pieces. Choroid fragments were then placed on growth factor-reduced Matrigel™ (30 μL/well; BD Biosciences, San Jose, Calif.) in 24-well plates. The plates were then incubated at 37° C. for about 10 minutes to allow the Matrigel to solidify. Endothelial Growth Medium (EGM-2) was prepared by mixing the contents of an EGM-2 “Bullet Kit” (Cat no. CC-4176) with Endothelial Basal Medium (EBM) (Lonza, Walkersville, Md.). Penicillin-streptomycin and 2.5 mg/mL Plasmocin were added to the final medium and used for this assay. Medium (500 μL) was added to each well of the plate and incubated at 37° C. with 5% CO2 for 72 hours before any treatments were added. Medium was changed after 48 hours. SH-11037 was synthesized as taught in WO2014/182695 (incorporated by reference to the extent it is consistent herewith) and dissolved in DMSO and then tested at 0.03, 0.3, and 1 μM concentrations for 48 hours. The final concentration of DMSO in each well was 0.2%. Trypan blue 0.4% solution (Fisher Scientific, Pittsburgh, Pa., USA) was used to assess cell viability. Images were taken using an EVOS-fl digital microscope (AMG, Mill Creek, Wash., USA) and data were analyzed as the sprouting distance in four different directions using ImageJ software v. 1.48V.

[2] = system: retina; assay: In vivo toxicity of intravitreally injected SH-11037 (histology, immunofluorescence); parameters: species or system C57BL/6J mice
Description: (§1) All mouse experiments followed the guidelines of the Association for Research in Vision and Ophthalmology Statement for the Use of Animals in Ophthalmic and Visual Research and were approved by the Indiana University School of Medicine Institutional Animal Care and Use Committee. Wild-type female C57BL/6J mice, 6-8 weeks of age, were purchased from the Jackson Laboratory (Bar Harbor, Me.). Intraperitoneal injections of 17.5 mg/kg ketamine hydrochloride and 2.5 mg/kg xylazine mixture were used for anesthesia.
(§2) Injections were given under anesthesia in a 0.5 μL volume using a 33-gauge needle. The needle was kept in place for 1 minute to prevent the reflux of solution when the needle was removed. SH-11037 was dissolved in DMSO then diluted in PBS to a final concentration of 0.5% DMSO. Eyes were numbed with tetracaine solution before the injection, and triple antibiotic ointment was used immediately after the injection to prevent infection. A masked researcher undertook imaging and analysis to avoid bias.
Toxicity of intravitreally injected SH-11037 was initially assessed by histology and immunofluorescence. The presence of acute ocular toxicity was investigated by injecting SH-11037 at different concentrations (0.1, 1, 10, and 100 μM), while long-term effects were tested by injecting 10 μM SH-11037. Mice were sacrificed 3 and 14 days post injections, respectively. Eyes were enucleated and fixed in 4% PFA overnight, and then the eyes were paraffin embedded and sectioned at 5 μm thickness by the Indiana University School of Medicine Histology Core. Mayer's hematoxylin and eosin (H&E) staining was performed, and retinal morphology was quantified by calculating the ratio of A (the distance from the ganglion cell layer to the outer edge of the inner nuclear layer) to B (the distance from the ganglion cell layer to the outer edge of the outer nuclear layer).
For immunofluorescence, sections were deparaffinised with xylenes and ethanol series and boiled in citrate buffer for 5 minutes. […]

[3] = system: neural retina function; assay: Retinal electrophysiology (ERG) after intravitreal injection; assay type: in vivo, C57BL/6J mice; conditions: 14 days after 100 μM SH-11037 injections, relative to control eyes
Description: as §1
Injections were given under anesthesia in a 0.5 μL volume using a 33-gauge needle. The needle was kept in place for 1 minute to prevent the reflux of solution when the needle was removed. […]
Electroretinograms (ERG) were obtained from animals 14 days post intravitreal injection of 100 μM SH-11037, 0.2 ng mouse anti-VEGF neutralizing antibody (R&D Systems, Minneapolis, Minn., USA)+0.3 μM SH-11037, or vehicle control and performed as described in Cai et al., EMBO Mol Med, 2012 4(9):980-91. Briefly, scotopic rod recordings were performed on overnight dark-adapted mice, with 10 increasing light intensities of white light and responses were recorded with a visual electrodiagnostic system (UTAS-E 2000; LKC Technologies, Gaithersburg, Md.). […] Ten responses were recorded and averaged at each light intensity. […]

[4] = system: CNV lesions; assay: Laser-induced choroidal neovascularization (L-CNV) model; assay type: in vivo, C57BL/6J mice; conditions: for reduction in CNV lesion volume (Z-stack images of agglutinin-stained choroidal flatmounts): day 14, vs vehicle control; for reduction of CNV lesion volume: day 14, vs control eyes, P<0.01
Description: as §1, §2
Laser photocoagulation was performed as described in Sulaiman et al., J Ocul Pharmacol Ther, 2015 and Poor et al., Invest Opthalmol Vis Sci, 2014 55(10): 6525-34. Briefly, eyes were dilated using 1% tropicamide, then underwent laser treatment using 50 μm spot size, 50 ms duration, and 250 mW pulses of an ophthalmic argon green laser, wavelength 532 nm, coupled to a slit lamp. A coverslip was used to allow viewing of the posterior pole of the eye. Each eye received 3 laser burns centered around the optic nerve at 12, 3, and 9 o'clock positions. The appearance of a bubble at the site of laser application was used to identify laser-induced damage of Bruch's membrane. Lesions in which bubbles were not observed were excluded from analysis. The effect of SH-11037 on the L-CNV model using final estimated vitreal concentrations of 0.1, 0.3, 1, or 10 μM SH-11037 was tested. Anti-mouse VEGF164 neutralizing antibody (R&D Systems, Minneapolis, Minn.) was tested at 0.2, 1, and 5 ng/eye. Vehicle (PBS+0.5% DMSO) was used as a negative control. All injections were given a single time, immediately after laser treatment. In testing the effects of SH-11037 on existing L-CNV lesions, vehicle, anti-VEGF164, and SH-11037 (10 μM) injections were given a single time, 5 days post laser.
Optical coherence tomography (OCT) was performed at the indicated times using the Micron III intraocular imaging system (Phoenix Research Labs, Pleasanton, Calif.). Before the procedure, eyes were dilated with 1% tropicamide solution (Alcon, Fort Worth, Tex.) and lubricated with hypromellose ophthalmic demulcent solution (Gonak) (Akorn, Lake Forest, Ill.). Mice were then placed on a custom heated stage that moves freely to position the mouse eye for imaging. Several horizontal and vertical images were taken per lesion to allow calculation of CNV lesion volume. Three-dimensional quantification of CNV lesion volumes was performed using an ellipsoid quantification method as described in Sulaiman et al., J Ocul Pharmacol Ther, 2015, 31(8):447-54. FA was performed 14 days post laser by intraperitoneal injections of 50 μL of 25% fluorescein sodium (Fisher Scientific, Pittsburgh, Pa.). Fundus images were taken using the Micron III system and Streampix software.
Choroidal flatmount preparation, staining, and imaging were done as described in Sulaiman et al., J Ocul Pharmacol Ther, 2015, 31(8):447-54. ImageJ software was used to analyze Z-stack images; the summation of the whole stained area in each section, multiplied by the distance between sections (3 μm) was used as an index for the CNV lesion volume. The volumes of the 3 lesions in each eye were averaged and considered as an n=1 for statistical analysis.

[5] = system: pre-existing retinal vasculature; assay: Staining of pre-existing retinal vasculature (isolectin B4 retina flatmounts); assay type: in vivo, C57BL/6J mice; conditions: 14 days after 100 μM intravitreal injection, vs vehicle control
[6] = system: retinal neovascularization; conditions: in vivo; cited from earlier work
[7] = system: human retinal endothelial cells (HRECs); conditions: cited from earlier work
[8] = system: new vessel growth induced by bFGF; conditions: chick chorioallantoic membrane; cited from earlier work
[9] = system: choroidal neovascularization; conditions: mouse, in vivo; cited from earlier work
[10] = system: retina; conditions: 10 μM into the vitreous of normal adult mice; cited from earlier work

## COc1ccc(CC2COc3cc(OC)c(OC)c(OC)c3C2=O)cc1OC(=O)[C@H](Cc1ccccc1)NC(=O)OC(C)(C)C (some centres unmarked) [SH-11037]
[1]; 0.03, 0.3, 1 μM, 48 hours, concentration-dependent, vs vehicle treated controls
  ability of choroidal tissues to form sprouts (sprouting distance): significantly inhibited
[1]; 48 hours, 1 μM SH-11037 vs DMSO controls
  cell viability of choroidal sprouts by Trypan blue staining: absence of significant cell death
[1]; ex vivo choroid microvascular tissue
  potent inhibitory concentration in choroidal sprouting: 0.03 µM
[2]; intravitreal SH-11037, 3 and 14 days post injections, vs vehicle-treated and uninjected eyes
  retinal thickness (A/B ratio) morphological changes: absence of morphological changes
[2]; intravitreal SH-11037, 3 and 14 days, vs vehicle-treated controls
  GFAP, cleaved caspase 3, TUNEL staining and MCP1 (retinal injury, apoptosis, inflammation): Neither shorter-nor longer-term SH-11037 treated retina showed any significant increases
[2]; intravitreal SH-11037 up to 100 μM final concentration, 3 and 14 days post injection, vs vehicle and no injection control eyes
  histological changes in H&E stained retinal sections: no histological changes
[3]
  ERG scotopic a- and b-waves, and photopic b-waves: not significantly different
[4]; 0.1 μM intravitreal
  reduction in CNV lesion volume (Z-stack images of agglutinin-stained choroidal flatmounts): no reduction
[4]; 0.3 μM intravitreal
  reduction in CNV lesion volume (Z-stack images of agglutinin-stained choroidal flatmounts): no reduction
[4]; 1 μM intravitreal
  reduction of CNV lesion volume: about 42%
[4]; 10 μM intravitreal single injection 5 days post laser, quantified 14 days post laser
  vascular volumes of pre-existing CNV lesions relative to vehicle: significantly suppressed
[4]; 10 μM intravitreal
  reduction of CNV lesion volume: ~55%
[4]; 14 days post laser, relative to vehicle treatment
  leakiness of CNV lesions by fluorescein angiography: reduced leakiness
[4]; injection 5 days post laser (10 μM SH-11037; 5 ng anti-VEGF164)
  CNV vascular volumes at day 14 versus 5 days control: no significant difference
[4]; intravitreal 0.1, 0.3, 1, 10 μM immediately after laser, 7 days post-laser, vs vehicle, dose-dependent
  CNV lesion volumes by OCT, ellipsoid volume quantification: significantly lower
[5]
  changes in pre-existing retinal vessels: No changes
[6]
  pathogenic retinal neovascularization in OIR model: significantly suppressed
[7]
  induction of apoptosis in HRECs: without inducing apoptosis
[7]; concentration-dependent
  HREC migration: inhibited
  HREC proliferation: inhibited
  HREC tube formation: inhibited

## COc1ccc(CC2COc3cc(O)c(OC)c(O)c3C2=O)cc1O (centres unmarked) [cremastranone, 5,7-dihydroxy-3-(3-hydroxy-4-methoxybenzyl)-6-methoxychroman-4-one]
[8]
  blocking new vessel growth induced by bFGF: as effective as retinoic acid
[6]
  pathogenic retinal neovascularization in OIR model: showed efficacy
[9]
  pathogenic neovascularization in laser photocoagulation CNV model: showed efficacy
[10]
  apoptosis of retinal cells: nor did it induce apoptosis
  cytotoxic or inflammatory effects on the retina: no cytotoxic or inflammatory effects
